Data on 26 compounds can be found in US9649297B2, “Treatment of ADHD” (Gosforth Centre (Holdings) Pty Ltd., priority 2007, dated 2017).

Molecules are shown by their SMILES. Structures can show the parent of a compound that is named as a salt.

In data set [1] the test system is epileptics and individuals with bipolar disorders. Particulars: per day; usual minimum anti-convulsant dose; cited from earlier work.
The subject of data set [2] is patients with a diagnosis of GAD. Kind of data set: Treatment of Generalised Anxiety Disorder (GAD) with low dose AED (Example 5). Type of data set: in vivo, human. Particulars: 50 to 150 mg, without co-administration of a stimulant. Here is the method: The diagnostic criteria cited for inclusion in this study included reference to excessive anxiety and worry which had been present for at least 6 months and which was difficult to control and associated with difficulty concentrating, becoming easily fatigued, restlessness or feeling keyed up or on edge and sleep disturbance. […] The medication was well tolerated with few side effects at the dose given. The improvement was evaluated using self and observer rating scales together with clinician review. As in the ADHD trials response usually commenced within 3-7 days. Due to the robust and persistent benefit, six months at the time of writing, many of the other psychotropic medications were reduced or even ceased.

The subject of data set [3] is patients who had symptoms of ADHD. Kind of data set: Clinical study with anti-epileptic mood stabilisers alone in patients with symptoms of ADHD (Example 3). In kind it is in vivo, human. Particulars: for patient-reported improvements (self and other rating scales, clinical assessments): monotherapy without stimulant, topiramate 12.5-50 mg/day, Phenytoin 30-60 mg/day, valproate same dose range as combined treatment.
Text: The improvements assessed using self and other rating scales objective psychometric tool together with repeated clinical assessments.

For data set [4], the system named is adults with ADHD. The protocol: The initial dosages used were from 15 to 70 mg/day of dexamphetamine and from 100 to 700 mg/day of VPA (Epilim) (=approximately 2 to 10 mg/kg/day).
The determination of the dose for the dexamphetamine was undertaken in a clinical sensitive open label manner. The dose was titrated upwards dependent on the clinical response and the freedom from side-effects. The dose range was between 15 and 70 mg a day. The frequency of the dosing also varied dependent upon the clinical response. The usual dose interval was between two to four hours. This dosing adjustment took place prior to the commencement of the sodium valproate. The sodium valproate medication was initiated once a day at 50 mg tablet or elixir and titrated upwards dependent on response, but not more than one increase every three days. The dose was given as a once or twice a day regime. During the titration phase, if clinically possible, no other adjustments to the pharmacotherapy were undertaken.
The dosages of sodium valproate, after adjustment, varied between 50 mg/day, 100 mg/day, 150 mg/day or 200 mg/day (number of patients—120), with the majority of patients receiving between 50 to 150 mg/day with […] usually the maximum.
The results were assessed using the Conners Adult ADHD Rating scales completed by the patient and observer (usually partner or parent). In a sample of 26 patients who completed self CAARS rating scales at; pre treatment, stable on stimulant and stable on anti-epileptic drug (AED).

In data set [5] the test system is ADHD patients. The protocol:
A. Topiramate in Combination with Dexamphetamine (n=11)
The third trial clinical has been with phenytoin and a psychostimulant (n=8). Phenytoin is less often used for its psychoactive properties than either valproate or topiramate. […] The assessment methods were as per the trials with valproate and topiramate.
C. Phenytoin in Combination with Dexamphetamine (n=6)
E. Sodium Valproate in Combination with Methylphenidate (n=4) • Sodium Valproate: average 1.6 mg/kg/day (130 mg/day) • Methylphenidate: average 1.2 mg/kg/day (84 mg/day)

Setting [6] is: low dose sodium valproate with dexamphetamine.

Consider `O=C1NC(c2ccccc2)(c2ccccc2)C(=O)N1COP(=O)(O)O` [Fosphenytoin Sodium], for which the “Minimum Dose/day effective for mood stabilisation” value (shortened to “Minimum Dose/day effective”) in data set [1] is given as 10 mg/kg.

Turning to `NC(=O)OCC(COC(N)=O)c1ccccc1` [Felbamate], the “Minimum Dose/day effective” value in data set [1] is recorded as 1200 mg. For the compound `CC(C)C[C@H](CN)CC(=O)O` [Pregabalin, (S)-3-(aminomethyl)-5-methylhexanoic acid], the “Minimum Dose/day effective” value in data set [1] is recorded as 300 mg. Regarding `NC(=O)N1c2ccccc2CC(=O)c2ccccc21` [Oxcarbazepine, 10,11-Dihydro-10-oxo-5H-dibenz[b,f]azepine-5-carboxamide], the “Minimum Dose/day effective” value in data set [1] is reported as 600 mg. On to `O=C1CN=C(c2ccccc2Cl)c2cc([N+](=O)[O-])ccc2N1` [Clonazepam], for which the “Minimum Dose/day effective” value in data set [1] was 1 mg.

As for `CCCC(CCC)C(=O)O.[Na]` [sodium valproate, sodium di-n-propylacetic acid], in data set [2], the “function and symptoms in Generalised Anxiety Disorder” value was “sustained improvement in function and a reduction in symptoms”. Besides, the “patient-reported improvements (self and other rating scales, clinical assessments)” value (from here on “patient-reported improvements”) in data set [3] is “improvements in the organisation of thoughts in conversation and reading comprehension”. In addition, the “psychosocial functioning (patient description, clinical review)” value in data set [4] (VPA added to dexamphetamine, dose below that for bipolar disorder) was “overall improvement in psychosocial functioning”. Moreover, in data set [4] (in vivo), the “adverse effect at higher dosages” value is “general cognitive and a resultant loss of efficacy”; the “adverse effect at higher doses” value was “general cognitive slowing and the resultant loss of efficacy”. In data set [4] (setting [6]), the “oculomotor function, Developmental Eye Movement Test (DEM)” value is reported as “has shown improvement”; the “reading and verbal comprehension abilities (patient report)” value was “improvement in their reading and verbal comprehension abilities”. With `CCC(C(=O)NC(N)=O)c1ccccc1` (centres unmarked) [Pheneturide], the “Minimum Dose/day effective” value in data set [1] is listed as 600 mg. Turning to `O=C1NC(=O)C(c2ccccc2)(c2ccccc2)N1` [Phenytoin, 5,5-diphenylimidazolidine-2,4-dione], the “patient-reported improvements” value in data set [3] is “improvements in the organisation of thoughts in conversation and reading comprehension”. For the same compound, the “overall effect and tolerability” value in data set [5] (phenytoin at low dose with a psychostimulant, n=8) was “robust and well tolerated effect in eight patients”. In addition, the “Minimum Dose/day effective” value in data set [1] is given as 200 mg. Regarding `NS(=O)(=O)c1ccc(N2CCCCS2(=O)=O)cc1` [Sultiame], the “Minimum Dose/day effective” value in data set [1] was 200 mg. As for `CCN1C(=O)OC(C)(C)C1=O` [Ethadione], in data set [1], the “Minimum Dose/day effective” value is 1000 mg. Regarding `COC1=CC(=O)OC1C(O)c1ccccc1Cl` (centres unmarked) [Losigamone], in data set [1], the “Minimum Dose/day effective” value is listed as 1500 mg. For `NC(=O)c1cn(Cc2c(F)cccc2F)nn1` [Rufinamide], the “Minimum Dose/day effective” value in data set [1] is recorded as 400 mg. In the case of `CN1C(=O)CC(=O)N(c2ccccc2)c2cc(Cl)ccc21` [Clobazam], the “Minimum Dose/day effective” value in data set [1] was 5 mg/kg daily. Consider `NS(=O)(=O)Cc1noc2ccccc12` [Zonisamide], for which the “Minimum Dose/day effective” value in data set [1] is 200 mg.

On to `Cc1ccsc1C(=CCCN1CCC[C@H](C(=O)O)C1)c1sccc1C` [Tiagabine Hydrochloride, (3S)-1-[4,4-bis(3-methylthiophen-2-yl)but-3-enyl]piperidine-3-carboxylic acid], for which the “Minimum Dose/day effective” value in data set [1] was 30 mg.

Consider `CCC1(c2ccccc2)C(=O)NC(=O)NC1=O.CNC(C)CC1CCCCC1` [Barbexaclone], for which the “Minimum Dose/day effective” value in data set [1] is given as 200 mg in divided doses.

As for `CC1(C)O[C@@H]2[C@@H](CO[C@@]3(COS(N)(=O)=O)OC(C)(C)O[C@@H]23)O1` [Topiramate, 2,3:4,5-Bis-O-(1-methylethylidene)-beta-D-fructopyranose sulfamate], the “patient-reported improvements” value in data set [3] is “improvements in the organisation of thoughts in conversation and reading comprehension”. For the same compound, the “effect on coordination, organisation and motivation” value in data set [3] (topiramate alone 12.5-50 mg/day) was “effect on coordination, as well as improved organisation and motivation”. Also, the “tolerability at initial titration” value in data set [5] (25 mg increasing to 125 mg daily, with stimulant) is “intolerable side effects and ceasing of medication”. In addition, the “Conners' Adult ADHD Rating scales (self and observer), DEM, clinician interview” value in data set [5] (re-titration commencing at 6.25 or 12.5 mg, with stimulant) is recorded as “significant improvements”. Moreover, in data set [1], the “Minimum Dose/day effective” value is on record as 100 mg. As to `Nc1nnc(-c2cccc(Cl)c2Cl)c(N)n1` [Lamotrigine], the “Minimum Dose/day effective” value in data set [1] is given as 100 mg. As for `CCC1(c2ccccc2)C(=O)NCNC1=O` [Primidone], the “Minimum Dose/day effective” value in data set [1] is 750 mg. For the compound `C=CC(N)CCC(=O)O` (centres unmarked) [Vigabatrin], the “Minimum Dose/day effective” value in data set [1] is given as 1000 mg. In the case of `NCC1(CC(=O)O)CCCCC1` [Gabapentin, 2-[1-(aminomethyl)cyclohexyl]acetic acid], the “Minimum Dose/day effective” value in data set [1] was 900 mg. As for `CCN1C(=O)NC(c2ccccc2)C1=O` (centres unmarked) [Ethotoin, 3-ethyl-5-phenyl-imidazolidine-2,4-dione], the “Minimum Dose/day effective” value in data set [1] is reported as 1000 mg.

On to `CCC1(c2ccccc2)NC(=O)N(C)C1=O` (centres unmarked) [Mephenytoin], for which, in data set [1], the “Minimum Dose/day effective” value is given as 200 mg. Regarding `CC[C@@H](C(N)=O)N1CCCC1=O` [Levetiracetam], in data set [1], the “Minimum Dose/day effective” value is given as 1000 mg. Regarding `CCC1(C)CC(=O)NC1=O` (centres unmarked) [Ethosuximide], the “Minimum Dose/day effective” value in data set [1] is recorded as 1000 mg. `NC(=O)N1c2ccccc2C=Cc2ccccc21` [Carbamazepine, (Z)-5H-dibenzo[b,f]azepine-5-carboxamide]: in data set [1], the “Minimum Dose/day effective” value is 400 mg.
